Like-named read-outs stand apart in the source and are kept apart here. Where a SMILES comes first, the peptide text is derived from it. The star is where a group is joined. Tos = Cc1ccc(S(=O)(=O)*)cc1; Bn = c1ccc(C*)cc1
Experiments:
APE-1 [1] = target: T1, APE-1 (Homo sapiens (Human), UniProt P27695); test: Molecular beacon assay for APE-1 endonuclease inhibition; assay type: biochemical; conditions: molecular beacon assay, endonuclease activity
Source text: Screening Assays for APE1 Inhibition—The initial screen was designed to look at the effect of potential inhibitors on APE1 repair kinetics. The approach can be used as a high throughput screen by choosing a specific timepoint to monitor. The screen utilizes a molecular beacon with a tetrahydrofuran (THF) abasic site within the stem region of a DNA hairpin that has a fluorophore on the 5′-terminus and a quencher on the 3′-terminus (FIG. 2a). […] An example of the molecular beacon screen and the excision assay are shown in FIGS. 2b,c and 2d, respectively.
Molecular Beacon Assay for Screening of APE-1 Inhibitors. A fluorescence-based molecular beacon assay to measure APE-1 protein activity and inhibition was performed as described previously with some modifications. Tang et al. Neuro Oncol. 13, 471-486 (2011) APE-1 (2 nM) in 10 mM HEPES (pH 7.8) 0.5 mM MgCl, 100 mM NaCl, 100 mM KCl, 0.0005% (w/v) BSA, was incubated with 20 nM 5′-(F)-CGACTXTTGAATTGACACGCCATGTCGATCAATTCAATAGTCG-(D)-3′ [X=tetrahydrofuran (THF) abasic site modification; F, 6-carboxyfluorescein (6-FAM); and D, DABCYL] that forms a hairpin with a 15 base pair stem and a 13 base loop. The THF modification is a known substrate for APE-1 excision. APE-1 mediated cleavage of the phosphodiester backbone at the THF-abasic site led to release of the 5′ 6-FAM (fluorophore) containing pentanucleotide, disrupting the Förster Resonance Energy Transfer (FRET) mediated quenching of the 6-FAM by DABCYL in the native hairpin oligomer. Since the signal was generated by continuous liberation of the fluorophore-labeled excision fragment, progress of this reaction could be monitored in real-time using a Cary Eclipse fluorescence spectrometer (Varian, Palo Alto, Calif.) or a Synergy H1 multi-well plate reader (BioTek, Winooski, Vt.). Reactions were optimized to yield ˜90% substrate turnover in 10 min, and fluorescence intensities measured every 12 s at 495 nm excitation and 520 nm emission. Data from the first 1-3 min of the assays (linear phase) were used to determine rate of substrate turnover (V0). The Michaelis constant (KM) was deduced experimentally, by incubating 2 nM APE-1 protein with 2-500 nM hairpin DNA substrate and measuring V0 —the experimentally observed V0 were analyzed as a function of substrate concentration [S] via non-linear regression using Prism (v.4; GraphPad Software, Inc., La Jolla, Calif.) and the KM was calculated as per the algorithm in the software package. To assay inhibition, 2 nM APE-1 protein was pre-incubated with 0.05-10.00 μM of the candidate inhibitors at 25° C. for 60 min, before initiating the excision assay by addition of hairpin DNA substrate. V0 was calculated at various concentrations of inhibitors and represented as inverse function of increasing inhibitor concentration [I]. […] All assays were carried out in three independent sets to obtain mean data and standard error of mean.
(§1) Screening for APE-1 Inhibitors. […] In this assay, the DNA hairpin substrate has a 6-FAM fluorophore on the 5′-terminus, a DABACYL fluorescence quencher on the 3′-terminus and a THF abasic site located 6 base pairs from the 5′-terminus in the stem region (FIG. 6). APE-1 activity is monitored as an increase in fluorescence due to the release of the 5′-(6-FAM)-GCACT fragment as a function of time. […] In this assay, substrate turnover was calculated from relative intensities of cleaved vs. intact oligomers and correlated with inhibitor concentration.

[2] = target: APE-1 activity in T98G cell nuclear lysates (Homo sapiens (Human), UniProt P27695); test: Molecular beacon assay in T98G cell nuclear extracts; assay type: biochemical
Procedure: Isolation and Assay of APE-1 Protein from Nuclear Extracts of Glioma Cells. Human glioblastoma cells (T98G) were maintained in growth medium, i.e., Eagle's Minimum Essential Medium (EMEM) with 10% fetal bovine serum (FBS), […] gentamycin, 1×MEM non-essential amino acids and 1 mM sodium pyruvate. Cells were harvested by Trypsin-EDTA treatment, washed with 1×PBS and nuclear proteins isolated using the CelLytic NuCLEAR Extraction kit (Sigma-Aldrich) as per manufacturer's instructions. Isolated nuclear proteins were estimated colorimetrically (BCA protein assay) and stored at −80° C. (long term) or at −20° C. during regular use. To assay APE-1 activity in T98G cells, nuclear extracts were serially diluted in 10 mM HEPES, 50 mM KCl, 1 mM DTT, 20% (v/v) glycerol and the activities measured via the molecular beacon assay (as described above). […] EC2 nM of nuclear extracts was incubated with 2 to 500 nM hairpin DNA substrate and the V0 measured for each value of [S]. Finally, the apparent KM* was deduced using the software algorithm in Prism (as described previously), and the KM* was used to determine the apparent Ki*. Inhibition of EC2 nM APE-1 activity by the inhibitors was assayed via the molecular beacon assay (described above).
Inhibition of APE-1 Activity in Nuclear Lysates. The ability of 1-5 and 8 to block APE-1 endonuclease activity in a complex mixture of proteins from T98G cell nuclear lysates was tested using the molecular beacon assay. The APE-1 activity in the lysates was standardized to give ˜90% turnover of 25 nM substrate in 10 min.

APE-1 [3] = target: T1, APE-1; test: Gel-based excision assay for APE-1 inhibitors; assay type: biochemical; conditions: APE-1 cleaved fragment vs. full length DNA substrate
Procedure: as §1

[4] = test system: aldehyde reactive sites in genomic DNA from T98G cells; assay type: cell-based, human; conditions: for effect on ARS: 0.25 μM compound alone
Procedure: Quantification of Abasic Sites. T98G cells maintained in growth medium, were harvested by Trypsin-EDTA treatment, resuspended in fresh growth medium at a density of 2.5×10^5 cells mL^−1, and 2 mL (5×10^5 cells) of this suspension was seeded into the wells of a sterile 6-well tissue culture plate. Cells were allowed to grow for 24 h, treated with the various compounds for different time points and/or at different concentrations. At the end of each treatment, adherent cells were harvested by trypsin-EDTA treatment and pooled with live and dead cells in culture supernatant. Pooled cells in suspension were pelleted by centrifugation, washed with 1×PBS and genomic DNA was isolated using the DNAzol reagent (Invitrogen). DNA in solution was quantified by UV absorbance (λ260 nm) using a Synergy H1 multiwell plate reader (BioTek, Winooski, Vt.). Abasic sites in purified DNA were then reacted with the biotin-conjugated aldehyde reactive probe (ARP), immobilized onto 96-well ELISA plates, and detected using horseradish peroxidase (HRP)-conjugated streptavidin using a colorimetric substrate as per manufacturer's instructions (Dojindo Molecular Technologies, Rockville, Md.).
The biotin tagged ARS are quantified using an avidin-biotin assay, followed by colorimetric detection with horseradish peroxidase conjugated to avidin.

T98G cells [5] = test: Potentiation of MeLex cytotoxicity, short term (72 h) MTS assay; assay type: cell-based, human; conditions: 72 h MTS assay
Procedure: (§2) Cytotoxic Potentiation of Various DNA Damaging Agents. T98G cells maintained in growth medium were resuspended in fresh growth medium and seeded into 96-well plates at 2000 cells/well (short term cytotoxicity) or 100 cells/well (long term cytotoxicity) as described in the previous section. After 24 h, the cells were treated with serial dilutions of various DNA damaging drugs in absence or presence of APE-1 inhibitors. At the end of the treatment period, cell survival was assayed using CellTiter 96 AQueous or CyQUANT kits for the short- and long-term studies respectively.
(§3) Toxicity. It was assumed that inhibition of APE-1 activity would be lead to toxicity since genetic deletion of the protein is lethal to cells. […] The toxicities were also determined in combination with the DNA minor groove methylating agent, MeLex. MeLex efficiently and selectively generates N3-methyladenine, which is converted into an abasic site by a BER glycosylase and/or hydrolytic depurination. The T98G cell line is relatively resistant to DNA damaging anticancer agents due to expression of multiple drug resistance proteins and O^6-alkylguanine-DNA alkyltransferase. […] A goal of the development of APE-1 inhibitors is to determine if they can be used to enhance the activity of DNA alkylating agents.

T98G cells [6] = test: Potentiation of MeLex cytotoxicity, long term (10 d) CyQUANT assay; assay type: cell-based, human
Procedure: as §2, §3

T98G cells [7] = test: Long term (10-day) CyQUANT cytotoxicity assay; assay type: cell-based, human; conditions: long term assay
Procedure: (§4) Cytotoxic Effects of APE-1 Inhibitors on Cultured Human Glioblastoma (T98G) Cells. Human glioblastoma cells (T98G) were maintained in growth medium as described above. […] The cells were allowed to attach and grow for 24 h, and then treated with serial dilutions of the drug for 72 h. After treatment, viable cells were measured by an MTS assay using the CellTiter 96 AQueous kit (Promega) as per manufacturer's instructions. […] The cells were allowed to attach and grow for 24 h and treated with serial dilutions of the drug for 240 h. After treatment, viable cells were measured using the CyQUANT cell proliferation assay kit (Invitrogen) as per manufacturer's instructions.
as §3

T98G cells [8] = test: Short term (72 h) MTS cytotoxicity assay; assay type: cell-based, human; conditions: 72 h MTS assay
Procedure: as §4, §3

double-stranded DNA = conditions: cited from earlier work
THF modified hairpin DNA = test: EtBr fluorescence titration with hairpin DNA; assay type: binding
Procedure: (§5) Fluorescence and UV Spectrometry Binding Studies. The fluorescence spectra were measured at room temperature on a Cary Eclipse fluorescence spectrometer (Varian, Palo Alto, Calif.). The fluorescence properties of 1 and 4 were measured in 10 mM HEPES, 0.5 mM MgCl2, 100 mM KCl, 100 mM NaCl, 2% glycerol, in absence or presence of wild type (unmodified) hairpin DNA (5′-[…]-3′) or THF-modified hairpin DNA (5′-[…]-3′) or APE-1 protein. A solution of 0.5 μM of either DNA sequence was titrated against 1-10 μM ethidium bromide (EtBr) to determine saturation of EtBr by fluorescence (530 nm excitation with 610 nm emission) and the subsequent displacement of EtBr (4 μM) by 1-20 μM 1 or 4 was also assayed. The APE protein-inhibitor binding fluorescence was assayed by titrating 0.1-20 μM of 4 against 1 μM of APE-1 protein.
(§6) Interaction of Inhibitors with DNA. A potential mechanism by which compounds can block APE-1 activity involves the interaction with the DNA substrate by intercalation. Such binding to DNA could sterically reduce the accessibility of the protein to the abasic site substrate. […] To further probe the potential role of intercalation, the effect of EtBr on the fluorescence of 1 and 4 were determined. […] The small changes in the fluorescence of 4 with both DNAs indicate little discrimination for the THF lesion.

unmodified hairpin DNA = test: EtBr fluorescence titration with hairpin DNA; assay type: binding
Procedure: as §5, §6

[9] = read-out: Ki APE-1 endonuclease inhibition
[10] = read-out: Ki APE-1 endonuclease inhibition (ND classes)

T1 sequence (P27695 whole entry): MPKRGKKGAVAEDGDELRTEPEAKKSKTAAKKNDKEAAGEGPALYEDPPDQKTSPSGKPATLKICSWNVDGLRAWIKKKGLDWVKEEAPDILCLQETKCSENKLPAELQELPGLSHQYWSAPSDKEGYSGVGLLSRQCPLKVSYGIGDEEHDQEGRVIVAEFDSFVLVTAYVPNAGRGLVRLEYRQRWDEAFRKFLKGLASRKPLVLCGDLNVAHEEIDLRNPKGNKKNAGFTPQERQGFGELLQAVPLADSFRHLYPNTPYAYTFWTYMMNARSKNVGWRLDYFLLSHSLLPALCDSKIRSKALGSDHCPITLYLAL
Chain of APE-1 activity in T98G cell nuclear lysates (P27695 whole entry, stated change not applied): as the sequence (P27695 whole entry) above

Row | SMILES | Ki (APE-1 [1]; [9]) [µM] | Ki (APE-1 [1]; [10]) [µM] | further results
1 | Cc1cc(N/N=C/c2ccc([N+](=O)[O-])o2)c2cc3c(cc2n1)OCO3 [Compound 6] | 0.64 | – | –
2 | COc1cccc(/C=N/Nc2cc(C)nc3cc4c(cc23)OCO4)c1 [Compound 2] | 0.22 | – | Ki [2]: 0.24 µM; IC50 (APE-1 [3]): 10.1 µM
3 | C/C=C/C(=O)NCCCCNC(=O)/C=C/c1ccc([N+](=O)[O-])cc1 [Compound 10] | 17 | – | –
4 | C=C(C[N+](=O)[O-])NC(CCCCNc1ccc([N+](=O)[O-])cc1N(O)O)C(=O)O (stereo not shown) [Compound 9] | 13 | – | –
5 | C/C(=N\Nc1cc(C)c2ccccc2n1)c1cn(C)n(-c2ccccc2)c1=O [Compound 8] | – | > 100 | IC50 (APE-1 [3]): > 100 µM; effect on ARS [4]: same as background
6 | COc1ccc(/C(Cc2ccccc2)=N\Nc2ccc([N+](=O)[O-])c([N+](=O)[O-])c2)cc1 [Compound 11] | 6.7 | – | –
7 | N=c1[nH]nc2nc(CC(=O)c3ccccc3[N+](=O)[O-])c(CC(=O)c3ccccc3[N+](=O)[O-])nn12 [Compound 13] | 4.9 | – | –
8 | C/C(=N\Nc1cc(C)nc2cc3c(cc12)OCO3)c1cn(C)n(-c2ccccc2)c1=O [Compound 1] | 0.18 | – | Ki [2]: 0.45 µM; IC50 (APE-1 [3]): 4.4 µM; LD50 of MeLex in the presence of LD10 concentration of inhibitor (T98G cells [5]): 54 µM; LD50 of MeLex in the presence of LD10 concentration of inhibitor (T98G cells [6]): 2.0 µM; LD10 concentration (T98G cells [7]): 0.17 µM; LD10 concentration (T98G cells [8]): 2.20 µM; level of ARS in combination with MeLex ([4]; 80 μM MeLex + 0.25 μM inhibitor, through at least 12 h): 50 sites/10^5 nucleotides
9 | COc1ccc(C2C3=C(CC(C)(C)CC3=O)Oc3cc4c(cc32)OCO4)c(OC)c1 (stereo not shown) [Compound 12] | 32 | – | –
10 | C/C(=N\Nc1cc(C)nc2ccc(C)cc12)c1cn(C)n(-c2ccccc2)c1=O [Compound 7] | 10.9 | – | –
11 | O=C(/C=C(/Nc1ccccc1)C(=O)c1ccccc1)c1ccccc1 [Compound 14] | 37 | – | –
12 | CC[n+]1c(-c2ccccc2)c2cc(N)ccc2c2ccc(N)cc21 [EtBr, ethidium bromide] | 1.8 | – | Kd (double-stranded DNA): ~1 µM; Kd (THF modified hairpin DNA): 1.8 µM; Kd (unmodified hairpin DNA): 1.6 µM; effect on ARS [4]: no effect; level of ARS in combination with MeLex ([4]; 80 μM MeLex + 0.25 μM compound, after 6 h): dropped off

More lines, main results first:

Row | Ki (APE-1 [1]; [9]) [µM] | Ki (APE-1 [1]; [10]) [µM] | SMILES | further results
13 | – | > 100 | Nc1ncnc2c1ncn2C1OC(C(=O)NCC(=O)O)C(O)C1O (stereo not shown) [Compound 16] | –
14 | – | > 100 | Cn1c(=N)[nH]c2c(nc(OCc3ccccc3)n2C2OC(O)C(O)C2O)c1=O (stereo not shown) [Compound 21] | –
15 | – | > 100 | CCc1cc2cc(C)c(C)cc2nc1SCC(=O)N1CCN(C(=O)c2ccco2)CC1 [Compound 29] | –
16 | – | > 100 | O=C(O)C(Cc1c[nH]c2ccc(O)cc12)NCC1(O)OCC(O)C(O)C1O (stereo not shown) [Compound 19] | –
17 | – | > 100 | Cc1ccc(S(=O)(=O)NC(CSCc2ccccc2)C(=O)NC(Cc2ccc(O)cc2)C(=O)O)cc1 (stereo not shown) [Compound 25] (Tos-Cys(Bn)-Tyr-OH; configuration not given here) | –
18 | – | > 100 | O=C(NNc1ccnc2cc(Cl)ccc12)/C(=C/c1ccccc1Cl)NC(=O)c1ccccc1 [Compound 15] | –
19 | – | > 100 | CCOC(=O)CC/C(=C\NC(=O)c1ccccc1)NC(=O)c1ccccc1 [Compound 26] | –
20 | – | > 100 | CC(NC(=O)/C(=C/c1ccccc1)NC(=O)c1ccccc1)c1ccccc1 (stereo not shown) [Compound 22] | –
21 | – | > 100 | CC(N)C(=O)NC1C(CO)OC(n2cnc3c(N)ncnc32)C1O (stereo not shown) [Compound 17] | –
22 | – | > 100 | O=C(O)CC1(CC(=O)NCCc2c[nH]c3ccccc23)OCCO1 [Compound 18] | –
23 | – | > 100 | CC(=O)N1N=C(c2cccc(NS(C)(=O)=O)c2)CC1c1cc2cc(C)c(C)cc2nc1Cl (stereo not shown) [Compound 30] | –
24 | – | > 100 | Cc1cc2cc3c(cc2n2c(SCC(=O)N4c5ccccc5CCc5ccccc54)nnc12)OCO3 [Compound 28] | –

Reference: patent US9624235B2, “Compounds and methods for inhibition of AP endonuclease-1/redox factor-1 (HAPE1) activity” (University of Pittsburgh—Of the Commonwealth System of …, priority 2012, dated 2017)
